“And” between values parts separate entries of the source, which are not always exact repeats. Equal entries are not always repeated. Where two headings read alike, the source gives them in different places.
Key:
[1] = tested on: NCI-H358 cells (K-Ras G12C); assay: CellTiter-Glo cell viability, NCI-H358; assay type: cell-based, human; conditions: Homo sapiens, NCI-H358, 120 h, K-Ras G12C, 5-day treatment; read-out: H358 Cell Viability IC50
Procedure, shortened: (§1)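 Endpoint: CellTiter-Glo luminescence on day 5, following ~30 min at room temperature. Data as (sample/mean DMSO)×100, four-parameter logistic fit.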

[2] = tested on: K-Ras G12C (NCI-H358 cells); assay: Potency assay: pERK in NCI-H358 cells; assay type: cell-based, human; conditions: Homo sapiens, read-out: pERK EC50 (H358 KRAS G12C)
Procedure, shortened: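 Cells plated the day before were exposed for 4 h at 37° C, 5% CO2 to a 10-point, 3-fold DMSO dilution series (10 mM top stock), in duplicate. Phospho-ERK was read by AlphaLISA SureFire Ultra or by In-Cell Western with DRAQ5 DNA stain, and IC50 came from a 4-parameter sigmoidal fit.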

[3] = tested on: Capan-1 cells (K-Ras G12V); assay: CellTiter-Glo cell viability, Capan-1; assay type: cell-based, human; conditions: Homo sapiens, CAPAN-1, 120 h, read-out: Capan-1 Cell Viability IC50
Procedure, shortened: as §1

[4] = molecular target: K-Ras G12C(GMP-PNP) binding to BRAF RBD (Homo sapiens (Human), UniProt P01116+P62937, G12C); assay: Disruption of BRAF RBD interaction with K-Ras (FRET / MOA assay), K-Ras G12C; assay type: biochemical
K-Ras G12C(GMP-PNP) binding to BRAF RBD, sequence (P01116 other isoform, or with tags, fused parts or gaps G12C): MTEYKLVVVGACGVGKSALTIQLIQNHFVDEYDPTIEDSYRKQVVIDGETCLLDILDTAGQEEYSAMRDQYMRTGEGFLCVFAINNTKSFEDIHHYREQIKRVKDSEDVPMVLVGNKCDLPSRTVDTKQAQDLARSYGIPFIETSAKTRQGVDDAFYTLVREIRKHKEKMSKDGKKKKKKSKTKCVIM
K-Ras G12C(GMP-PNP) binding to BRAF RBD, sequence (P62937 whole entry): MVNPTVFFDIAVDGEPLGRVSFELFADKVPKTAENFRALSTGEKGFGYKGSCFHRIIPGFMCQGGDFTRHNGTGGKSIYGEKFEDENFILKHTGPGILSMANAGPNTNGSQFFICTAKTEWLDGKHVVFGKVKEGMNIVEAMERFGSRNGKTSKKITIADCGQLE
Procedure, shortened: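 TR-FRET readout: after 3 h compound incubation at 25 °C, anti-His Eu and anti-GST allophycocyanin (10 and 50 nM final) added for a further 1.5 h. Dilution series was 10-point, 3-fold, top 30 μM final. Ras–cyclophilin A ternary complex formation blocks the BRAF RBD interaction; IC50 derived from reduced FRET ratio relative to DMSO.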

IC50 [1] | EC50 ([2]; NCI-H358 cells, 4 hours) | IC50 ([4]; read-out: KRAS G12C FRET IC50) | IC50 ([4]; KRAS G12C FRET IC50) | SMILES | IC50 ([3]; K-Ras G12V, 5-day treatment) | EC50 ([2]; NCI-H358, 4 h) | IC50 [3]
100 to 1000 nM | < 5000 nM | – | – | CCn1c(-c2cccnc2[C@H](C)OC)c2c3cc(ccc31)-c1csc(n1)C[C@H](NC(=O)[C@H](C(C)C)N1C[C@@H](c3ccccc3)CC1=O)C(=O)N1CCC[C@H](N1)C(=O)OCC(C)(C)C2 (single isomer, unassigned) [Compound A544] | 100 to 1000 nM | – | –
100 to 1000 nM | < 5000 nM | – | – | CCn1c(-c2cccnc2[C@H](C)OC)c2c3cc(ccc31)-c1cc(O)cc(c1)C[C@H](NC(=O)[C@H](C(C)C)N(C)C(=O)[C@H]1CCN(C(C)=O)C1)C(=O)N1CCC[C@H](N1)C(=O)OCC(C)(C)C2 [Compound A5] | 100 to 1000 nM | – | –
1000 to 10000 nM | < 5000 nM | – | – | CCn1c(-c2cccnc2[C@H](C)OC)c2c3cc(ccc31)-c1cccc(c1)C[C@H](NC(=O)[C@H](C(C)C)N(C)C(C)=O)C(=O)N1CCC[C@H](N1)C(=O)OCC(C)(C)C2 [Compound A61] | 1000 to 10000 nM | – | –
1000 to 10000 nM | < 5000 nM | – | – | CCn1c(-c2cccnc2[C@H](C)OC)c2c3cc(ccc31)-c1csc(n1)C[C@H](NC(=O)[C@H](C(C)C)N(C)C(=O)[C@H]1CCN(C(=O)CN(C)C)C1)C(=O)N1CCC[C@H](N1)C(=O)OCC(C)(C)C2 [Compound A97] | 1000 to 10000 nM | – | –
– | < 5000 nM | 100 to 1000 nM | – | CCn1c(-c2cccnc2[C@H](C)OC)c2c3cc(ccc31)-c1cccc(c1)C[C@H](NC(=O)[C@H](C(C)C)N(C)C(=O)[C@H]1CCNC1)C(=O)N1CCC[C@H](N1)C(=O)OCC(C)(C)C2 [Compound A119] | > 10000 nM | – | –
– | < 5000 nM | 10 to 100 nM | – | CCn1c(-c2cccnc2[C@H](C)OC)c2c3cc(ccc31)-c1cc(O)cc(c1)C[C@H](NC(=O)C(=C(C)C)N(C)C(C)=O)C(=O)N1CCC[C@H](N1)C(=O)OCC(C)(C)C2 [Compound A142] | > 10000 nM | – | –
– | < 5000 nM | < 10 nM | – | CCn1c(-c2cccnc2[C@H](C)OC)c2c3cc(ccc31)-c1cc(O)cc(c1)C[C@H](NC(=O)[C@H](C(C)C)N(C)C(=O)[C@H]1CCN(C3CC3)C1)C(=O)N1CCC[C@H](N1)C(=O)OCC(C)(C)C2 [Compound A175] | 1000 to 10000 nM | – | –
– | < 5000 nM | 10 to 100 nM and 100 to 1000 nM | – | CCn1c(-c2cccnc2[C@H](C)OC)c2c3cc(ccc31)-c1cc(O)cc(c1)C[C@H](NC(=O)C1CCC3C1C3(F)F)C(=O)N1CCC[C@H](N1)C(=O)OCC(C)(C)C2 (some centres unmarked) [Compound A181] | > 10000 nM | – | –
– | < 5000 nM | 10 to 100 nM | – | CCn1c(-c2cccnc2[C@H](C)OC)c2c3cc(ccc31)-c1cc(O)cc(c1)C[C@H](NC(=O)[C@@H]1[C@H]3C[C@H]3CN1C(C)=O)C(=O)N1CCC[C@H](N1)C(=O)OCC(C)(C)C2 [Compound A207] | > 10000 nM | – | –
– | < 5000 nM | < 10 nM | – | CCn1c(-c2cccnc2[C@H](C)OC)c2c3cc(ccc31)-c1cccc(c1)C[C@H](NC(=O)[C@H](C(C)C)N(C)C(=O)C1COC1)C(=O)N1CCC[C@H](N1)C(=O)OCC(C)(C)C2 [Compound A246] | 1000 to 10000 nM | – | –
– | < 5000 nM | 10 to 100 nM | – | CCn1c(-c2cccnc2[C@H](C)OC)c2c3cc(ccc31)-c1cc(O)cc(c1)C[C@H](NC(=O)[C@H](C(C)C)N(C)C(=O)C1CC(=O)N(C3CC3)C1)C(=O)N1CCC[C@H](N1)C(=O)OCC(C)(C)C2 (some centres unmarked) [Compound A252] | 100 to 1000 nM | – | –
– | < 5000 nM | < 10 nM | – | CCn1c(-c2cnccc2COC)c2c3cc(ccc31)-c1cc(O)cc(c1)C[C@H](NC(=O)[C@H](C(C)C)N(C)C(=O)N1CCNCC1)C(=O)N1CCC[C@H](N1)C(=O)OCC(C)(C)C2 [Compound A255] | > 10000 nM | – | –
1000 to 10000 nM | < 5000 nM | – | – | CCn1c(-c2cccnc2[C@H](C)OC)c2c3cc(ccc31)-c1cc(O)cc(c1)C[C@H](NC(=O)[C@@H](C(C)C)N(C)C(C)=O)C(=O)N1CCC[C@H](N1)C(=O)OCC(C)(C)C2 [Compound A256] | – | – | –
– | < 5000 nM | < 10 nM | – | CCn1c(-c2cccnc2[C@H](C)OC)c2c3cc(ccc31)-c1csc(n1)C[C@H](NC(=O)[C@H](C(C)C)N(C)C(=O)N1CCN(C(C)=O)CC1)C(=O)N1CCC[C@H](N1)C(=O)OCC(C)(C)C2 [Compound A291] | 10 to 100 nM | – | –
100 to 1000 nM | < 5000 nM | – | – | CCn1c(-c2cccnc2[C@H](C)OC)c2c3cc(ccc31)-c1csc(n1)C[C@H](NC(=O)C1(F)CCC1)C(=O)N1CCC[C@H](N1)C(=O)OCC(C)(C)C2 [Compound A361] | 100 to 1000 nM | – | –
100 to 1000 nM | < 5000 nM | – | – | CCn1c(-c2cccnc2[C@H](C)OC)c2c3cc(ccc31)-c1csc(n1)C[C@H](NC(=O)C1(F)CC1)C(=O)N1CCC[C@H](N1)C(=O)OCC(C)(C)C2 [Compound A362] | 100 to 1000 nM | – | –
– | < 5000 nM | < 10 nM | – | CCn1c(-c2cccnc2[C@H](C)OC)c2c3cc(ccc31)-c1cc(O)cc(c1)C[C@H](NC(=O)[C@H](C(C)C)N(C)C(=O)[C@H]1OCC[C@H]1c1ccccc1)C(=O)N1CCC[C@H](N1)C(=O)OCC(C)(C)C2 [Compound A425] | – | – | –
– | < 5000 nM | 10 to 100 nM | – | CCn1c(-c2cccnc2[C@H](C)OC)c2c3cc(ccc31)-c1cc(O)cc(c1)C[C@H](NC(=O)[C@H](C(C)C)N(C)C(=O)C1CNCCNC1)C(=O)N1CCC[C@H](N1)C(=O)OCC(C)(C)C2 [Compound A432] | – | – | –
< 10 nM | < 5000 nM | – | – | CCn1c(-c2cc(N3CCN(C)CC3)cnc2[C@H](C)OC)c2c3cc(ccc31)-c1csc(n1)C[C@H](NC(=O)[C@H](C(C)C)N(C)C(=O)[C@H]1CCCS1(=O)=O)C(=O)N1CCC[C@H](N1)C(=O)OCC(C)(C)C2 [Compound A439] | 10 to 100 nM | – | –
– | < 5000 nM | – | 10 to 100 nM | CCn1c(-c2cc(N3CCN(C)CC3)cnc2[C@H](C)OC)c2c3cc(ccc31)-c1csc(n1)C[C@H](NC(=O)[C@H](C(C)C)N(C)C(=O)N1CC(OC)C1)C(=O)N1CCC[C@H](N1)C(=O)OCC(C)(C)C2 [Compound A466] | – | – | –
10 to 100 nM | < 5000 nM | – | – | CCn1c(-c2cccnc2[C@H](C)OC)c2c3cc(ccc31)-c1csc(n1)C[C@H](NC(=O)[C@H](C(C)C)N(C)C(=O)N1CCC[C@@H]1CN(C)C)C(=O)N1CCC[C@H](N1)C(=O)OCC(C)(C)C2 [Compound A518] | 10 to 100 nM | – | –
100 to 1000 nM | < 5000 nM | – | – | CCn1c(-c2cccnc2[C@H](C)OC)c2c3cc(ccc31)-c1csc(n1)C[C@H](NC(=O)[C@H](C(C)C)N(CCc1ccncc1)C1CC1)C(=O)N1CCC[C@H](N1)C(=O)OCC(C)(C)C2 [Compound A556] | 100 to 1000 nM | – | –
10 to 100 nM | < 5000 nM | – | – | CCn1c(-c2cccnc2[C@H](C)OC)c2c3cc(ccc31)-c1csc(n1)C[C@H](NC(=O)[C@H](C(C)C)N(C)C(=O)N1CC[C@@H](F)[C@H](N)C1)C(=O)N1CCC[C@H](N1)C(=O)OCC(C)(C)C2 [Compound A559] | 100 to 1000 nM | – | –
10 to 100 nM | < 5000 nM | – | – | CCn1c(-c2cccnc2[C@H](C)OC)c2c3cc(ccc31)-c1csc(n1)C[C@H](NC(=O)[C@H](C(C)C)N(C)C(=O)[C@@H]1OCC[C@@H]1c1ccccc1)C(=O)N1CCC[C@H](N1)C(=O)OCC(C)(C)C2 [Compound A585] | 100 to 1000 nM | – | –
100 to 1000 nM | < 5000 nM | – | – | CCn1c(-c2cccnc2[C@H](C)OC)c2c3cc(ccc31)-c1cccc(c1)C[C@H](NC(=O)[C@H](C(C)C)N(C)C(=O)[C@@H]1OCC[C@@H]1c1ccccc1)C(=O)N1CCC[C@H](N1)C(=O)OCC(C)(C)C2 [Compound A586] | 100 to 1000 nM | – | –
1000 to 10000 nM | < 5000 nM | – | – | CCn1c(-c2cccnc2[C@H](C)OC)c2c3cc(ccc31)-c1csc(n1)C[C@H](NC(=O)[C@H](C(C)C)N(C)C(=O)N1CCC[C@H]1c1ccccc1)C(=O)N1CCC[C@H](N1)C(=O)OCC(C)(C)C2 [Compound A599] | 1000 to 10000 nM | – | –
100 to 1000 nM | < 5000 nM | – | – | CCn1c(-c2cccnc2[C@H](C)OC)c2c3cc(ccc31)-c1cc(O)cc(c1)C[C@H](NC(=O)[C@H](C(C)C)N(C)C(=O)[C@]1(F)CCN(C(=O)OC)C1)C(=O)N1CCC[C@H](N1)C(=O)OCC(C)(C)C2 [Compound A616] | 100 to 1000 nM | – | –

SMILES | IC50 [1] | EC50 ([2]; NCI-H358 cells, 4 hours) | IC50 ([4]; read-out: KRAS G12C FRET IC50) | IC50 ([4]; KRAS G12C FRET IC50) | IC50 ([3]; K-Ras G12V, 5-day treatment) | EC50 ([2]; NCI-H358, 4 h) | IC50 [3]
CCn1c(-c2cccnc2[C@H](C)OC)c2c3cc(ccc31)-c1cc(cc3nc[nH]c13)C[C@H](NC(=O)[C@H](C(C)C)N(C)C(C)=O)C(=O)N1CCC[C@H](N1)C(=O)OCC(C)(C)C2 [Compound A153] | – | < 5000 nM | 10 to 100 nM | – | > 10000 nM | – | –
CCn1c(-c2cccnc2[C@H](C)OC)c2c3cc(ccc31)-c1cc(cc(S(C)(=O)=O)c1)C[C@H](NC(=O)[C@H](C(C)C)N(C)C(C)=O)C(=O)N1CCC[C@H](N1)C(=O)OCC(C)(C)C2 [Compound A154] | – | < 5000 nM | 10 to 100 nM | – | > 10000 nM | – | –
CCn1c(-c2cccnc2[C@H](C)OC)c2c3cc(ccc31)-c1csc(n1)C[C@H](NC(=O)[C@H](C(C)C)N(C)C(=O)[C@H]1CCN(S(C)(=O)=O)C1)C(=O)N1CCC[C@H](N1)C(=O)OCC(C)(C)C2 [Compound A237] | – | – | 10 to 100 nM | – | – | < 5000 nM | 1000 to 10000 nM

Source: patent US20250195521A1 (Revolution Medicines, Inc., priority 2020, published 2025)
